Assay results as given in patent US11484601B2, “Targeting M2-like tumor-associated macrophages by using melittin-based proapoptotic peptide” (TWI[…]., priority 2018, dated 2022).

What was measured:
[1] = MTS cell viability assay, M1-type macrophage; type: cell-based; settings: mouse, RAW264.7 macrophages differentiated into M1-type with LPS, 0.6 to 0.8 μM
Description: (§1) More specifically, dKLA (SEQ ID NO: 2), MEL (SEQ ID NO: 1), MEL-dKLA (SEQ ID NO: 3; […]-d[KLAKLAKKLAKLAK]) peptide and 5-carboxyl tetramethylrhodamine (TMR)-conjugated dKLA, MEL and MEL-KLA peptides were purchased from GenScript (Piscataway, N.J., USA). TMR was conjugated with the amino group located at the N-terminal of the peptide. Regarding all of the peptides, 95% or greater purified peptides were used. Murine Lewis lung carcinoma (LLC) cells and macrophage RAW264.7 of mice were cultured in Dulbecco's modified Eagle's medium (DMEM; Welgene, Korea) to which 10% heat-inactivated fetal bovine serum (Welgene), 100 U/mL penicillin and 100 μg/mL streptomycin (Invitrogen, CA, USA) were added. Macrophage (RAW264.7) differentiated into M2-type was treated with IL-4 and IL-13 in the medium for 24 hours. After the treatment, the cells were cultured in a state in which serum was insufficient for 48 hours. M1-type macrophage was treated with 1 ng/mL of LPS for 24 hours to induce differentiation.
The cell viability test was measured via the MTS assay. RAW264.7 macrophage was differentiated into M1-type or M2-type macrophage which was inoculated onto a 96-well plate at 3×10^4 cells/well. The next day, the macrophage was treated with each of PBS, dKLA, MEL and MEL-dKLA. […] Then, fluorescence was measured at 490 nm to measure cell viability.

M1 macrophage = test: Annexin V-FITC / MitoTracker flow cytometry, M1 macrophage; type: cell-based, mouse; settings: 0.8 μM peptide
Description: More specifically, the cells were stained with Annexin V-fluorescein isothiocyanate (FITC; BD Biosciences, CA, USA) and MitoTracker RedBOX (Invitrogen). The cells were inoculated at 5×10^5 cells/well, onto a 24-well plate. The next day, 0.8 μM peptide was applied thereto. In 1, 3 and 6 hours after the application, the cells were reacted with 250 nM MitoTracker for 1 hour in a serum-free culture solution. Thereafter, the cells were collected and reacted with Annexin V again. The reacted cells were measured with BD FACSCalibur, and were analyzed via FlowJo software (Treestar, Inc., CA, USA). MitoTracker could pass through protoplasmic membrane depending on the membrane charge and then accumulated within the mitochondria. In other words, staining may be identified in the mitochondria membrane of living cells, but staining may be difficult in cells where apoptosis occurs due to membrane disturbance.

[2] = system: CD31+ endothelial cells of LLC tumors; test: CD31 immunofluorescence staining of tumor endothelial cells; type: in vivo, mouse; settings: LLC tumor sections
Source text: CD31 (PECAM-1) is […] the vascular endothelium, and is well-known as a marker that may indicate angiogenesis. The angiogenesis in tumors is essential means to supply oxygen and nutrients to areas at a low oxygen level in the tumor and thus is closely related to cancer growth and metastasis. M2-type macrophages are major precursors of angiogenic factors, and contain cyclooxygenase-2, matrix metalloproteinase-9 and VEGF. The density of macrophage is related to angiogenesis. Therefore, immunostaining was performed and a confocal device was used to identify whether a decrease in the M2-type tumor-associated macrophage (TAM) in a tumor causes a decrease in angiogenesis.
More specifically, the tissue was […] with paraformaldehyde for 24 hours. Then, the tissue was cut into sections having 4 μm thickness using a rotary microtome, which in turn was restored via autoclaving under pressure for 1 minute with tri-sodium citrate buffer. […] After the staining, the sections were mounted on and analyzed using a laser scanning confocal microscope (Carl Zeiss). All images are taken using LSMS PASCAL, and fluorescence values were analyzed using ImageJ software.

[3] = system: M2 macrophage (RAW264.7 differentiated into M2-type with IL-4 and IL-13); test: MTS cell viability assay, M2-type macrophage; type: cell-based, mouse; settings: 24 hours, read-out: half-maximal inhibitory concentration (IC50) against M2 macrophage
Description: as §1
(§2) The cell viability test was measured via the MTS assay. RAW264.7 macrophage was differentiated into M1-type or M2-type macrophage which was inoculated onto a 96-well plate at 3×10^4 cells/well. The next day, the macrophage was treated with each of PBS, dKLA, MEL and MEL-dKLA. After 24 hours, the culture solution was replaced and the cell was treated with 20 μL MTS reaction solution (Promega, WI, USA), followed by reaction at 37° C. Then, […] was measured at 490 nm to measure cell viability.
(§3) The MEL-DM1 anticancer drug conjugation method and cell test method are as described above.

[4] = MTS cell viability assay, M2-type macrophage; type: cell-based, mouse; settings: mouse, M2 macrophage, 0.6 to 0.5 μM, reaction for 24 hours
Description: as §1, §2, §3

[5] = system: M1-type tumor-associated macrophage (CD45+F4/80+CD86+); test: Flow cytometry of tumor tissue, M1-type TAM; type: in vivo, mouse; settings: MEL vs PBS and dKLA groups; MEL-dKLA vs MEL group
Description: More specifically, the tumor cells were thinly crushed and separated from each other in DMEM to which DNasel (1 U/mL) and collagenase D (1 mg/mL) were added. The tissue was gently agitated for 1 hour at 37° C., and separated using a […] nylon mesh filter. Red blood cells were dissolved in Phrmlyse buffer (BE bioscience). Individual cells passed through a 40-μm nylon mesh filter and then were stained with following antibodies: CD4+ T cell (CD45+CD4+CD8−), CD8+ T cell (CD45+CD4−CD8+), Foxp3+ regulatory T cell (CD4+CD25+Foxp3+), dendritic cell (CD45+CD11b+CD11c+), and M1 (CD45+F4/80+CD86+) or M2 macrophage (CD45+F4/80+CD206+): anti-CD45-FITC, anti-CD4-phycoerythrin (PE), anti-CD8-allophycocyanin (APC), anti-CD4-FITC, anti-CD25-PE, anti-Foxp3-Alexa Fluor647, anti-CD11b-APC, anti-CD11c-APCcy7, anti-Grl-PEcy7, anti-CD86-PEcy7, and anti-CD206-APC antibodies. Annexin-V was previously treated to measure the cell percentage of macrophages.

CC[C@H](C)[C@H](NC(=O)CN)C(=O)NCC(=O)N[C@@H](C)C(=O)N[C@H](C(=O)N[C@@H](CC(C)C)C(=O)N[C@@H](CCCCN)C(=O)N[C@H](C(=O)N[C@@H](CC(C)C)C(=O)N[C@H](C(=O)N[C@H](C(=O)NCC(=O)N[C@@H](CC(C)C)C(=O)N1CCC[C@H]1C(=O)N[C@@H](C)C(=O)N[C@@H](CC(C)C)C(=O)N[C@H](C(=O)N[C@@H](CO)C(=O)N[C@@H](Cc1c[nH]c2ccccc12)C(=O)N[C@H](C(=O)N[C@@H](CCCCN)C(=O)N[C@@H](CCCNC(=N)N)C(=O)N[C@@H](CCCCN)C(=O)N[C@@H](CCCNC(=N)N)C(=O)N[C@@H](CCC(N)=O)C(=O)N[C@@H](CCC(N)=O)C(N)=O)[C@@H](C)CC)[C@@H](C)CC)[C@@H](C)O)[C@@H](C)O)C(C)C)C(C)C [MEL]
viability at 24 h [1]: 74% | Annexin V / MitoTracker staining effect on M1 macrophage (M1 macrophage; 1 to 3 hours): the effect did not appear | Annexin V / MitoTracker staining change in M1 macrophage (M1 macrophage; 6 hours): no significant change | CD31+ endothelial cells (blood vessel density) [2]: significant decrease | IC50 [3]: 600 to 800 nM | viability at 24 h [4]: 71 to 79% | F480+ CD86+ M1-type tumor-associated macrophage in tumor [5]: slightly increased
